Measurements: patent US20250243196A1, “CITRON KINASE INHIBITORS” (The Cleveland Clinic Foundation, priority 2021, published 2025)

Columns and labels:
Assay type in all cases: biochemical
Flt1(h) = Flt1(h) (Homo sapiens (Human), UniProt P17948); test: KinaseProfiler panel; set-up: dose or concentration left out as unconfirmed; settings: activity remaining
PIP5K1a(h) = PIP5K1a(h) (Homo sapiens (Human), UniProt Q99755); test: KinaseProfiler panel; set-up: dose or concentration left out as unconfirmed; settings: activity remaining
HIPK1(h) = HIPK1(h) (Homo sapiens (Human), UniProt Q86Z02); test: KinaseProfiler panel; set-up: dose or concentration left out as unconfirmed; settings: activity remaining
mTOR/FKBP12(h) = mTOR/FKBP12(h) (Homo sapiens (Human), UniProt P42345); test: KinaseProfiler panel; set-up: dose or concentration left out as unconfirmed; settings: activity remaining
VRK2(h) = VRK2(h) (Homo sapiens (Human), UniProt Q86Y07); test: KinaseProfiler panel; set-up: dose or concentration left out as unconfirmed; settings: activity remaining
PIP5K1g(h) = PIP5K1g(h) (Homo sapiens (Human), UniProt O60331); test: KinaseProfiler panel; settings: activity remaining
CDKL3(h) = CDKL3(h) (Homo sapiens (Human), UniProt Q8IVW4); test: KinaseProfiler panel; set-up: dose or concentration left out as unconfirmed; settings: activity remaining
ZAP-70(h) = ZAP-70(h) (Homo sapiens (Human), UniProt P43403); test: KinaseProfiler panel; set-up: dose or concentration left out as unconfirmed; settings: activity remaining
ULK2(h) = ULK2(h) (Homo sapiens (Human), UniProt Q8IYT8); test: KinaseProfiler panel; set-up: dose or concentration left out as unconfirmed; settings: activity remaining
PhKγ2(h) = PhKγ2(h) (Homo sapiens (Human), UniProt P15735); test: KinaseProfiler panel; set-up: dose or concentration left out as unconfirmed; settings: activity remaining
WNK3(h) = WNK3(h) (Homo sapiens (Human), UniProt Q9BYP7); test: KinaseProfiler panel; set-up: dose or concentration left out as unconfirmed; settings: activity remaining
CLK2(h) = CLK2(h) (Homo sapiens (Human), UniProt P49760); test: KinaseProfiler panel; set-up: dose or concentration left out as unconfirmed; settings: activity remaining
LATS1(h) = LATS1(h) (Homo sapiens (Human), UniProt O95835); test: KinaseProfiler panel; set-up: dose or concentration left out as unconfirmed; settings: activity remaining
IKKβ(h) = IKKβ(h) (Homo sapiens (Human), UniProt O14920); test: KinaseProfiler panel; set-up: dose or concentration left out as unconfirmed; settings: activity remaining
STK32C(h) = STK32C(h) (Homo sapiens (Human), UniProt Q86UX6); test: KinaseProfiler panel; settings: activity remaining
CDK17/cyclinY(h) = CDK17/cyclinY(h) (Homo sapiens (Human), UniProt Q00537); test: KinaseProfiler panel; set-up: dose or concentration left out as unconfirmed; settings: activity remaining
ChaK1(h) = ChaK1(h) (Homo sapiens (Human), UniProt Q96QT4); test: KinaseProfiler panel; set-up: dose or concentration left out as unconfirmed; settings: activity remaining
IKKβ = IKKβ (Homo sapiens (Human), UniProt O14920); test: KinaseProfiler radiometric assay (14-485KP); settings: mean of at least two independent experiments
Text: In another aspect, disclosed is a method of inhibiting citron kinase in a sample, comprising contacting the sample with a compound described herein (e.g., a compound of formula (I) or a pharmaceutically acceptable salt thereof), or a pharmaceutical composition described herein (e.g., a pharmaceutical composition comprising a compound of formula (I) or a pharmaceutically acceptable salt thereof), in an amount effective to inhibit citron kinase. In some embodiments, the step of contacting the sample with the compound comprises administering the compound to a subject (e.g., a subject) suffering from cancer. Methods of determining kinase inhibition are well known in the art. For example, kinase activity of an enzyme and the inhibitory capacity of a test compound can be determined by measuring enzyme specific phosphorylation of a substrate. Commercial assays and kits can be employed. For example, kinase inhibition can be determined using a radiometric binding assay, such as using KinaseProfiler™ technology (Eurofins Discovery). This assay method directly detects product formation without the use of modified substrates or coupling enzymes. Test compounds are incubated with kinase, substrate, required cofactors and radioisotope labeled ATP. Following incubation, unreacted radioactive ATP is removed by washing and incorporation of the radiolabeled phosphate into the kinase substrate is assayed to detect phosphoryltransferase activity, which is directly proportional to the amount of phosphorylated substrate. Inhibition of the kinase by a kinase inhibitor prevents phosphorylation of the substrate and thereby limits the incorporation of radiolabeled phosphate. Such an assay is compatible with a microwell assay format, allowing simultaneous determination of IC50 of multiple compounds.
The effect of various compounds on the inhibition of other kinases has also been determined. Table 2 reports measured IC50 values; value units are nanomolar inhibition.

TGFBR1(h) = TGFBR1(h) (Homo sapiens (Human), UniProt P36897); test: KinaseProfiler panel; set-up: dose or concentration left out as unconfirmed; settings: activity remaining
BIKE(h) = BIKE(h) (Homo sapiens (Human), UniProt Q9NSY1); test: KinaseProfiler panel; set-up: dose or concentration left out as unconfirmed; settings: activity remaining
CK1δ(h) = CK1δ(h) (Homo sapiens (Human), UniProt P48730); test: KinaseProfiler panel; set-up: dose or concentration left out as unconfirmed; settings: activity remaining
WNK1(h) = WNK1(h) (Homo sapiens (Human), UniProt Q9H4A3); test: KinaseProfiler panel; set-up: dose or concentration left out as unconfirmed; settings: activity remaining
IRAK1(h) = IRAK1(h) (Homo sapiens (Human), UniProt P51617); test: KinaseProfiler panel; set-up: dose or concentration left out as unconfirmed; settings: activity remaining
GCN2(h) = GCN2(h) (Homo sapiens (Human), UniProt Q9P2K8); test: KinaseProfiler panel; set-up: dose or concentration left out as unconfirmed; settings: activity remaining
GRK5(h) = GRK5(h) (Homo sapiens (Human), UniProt P34947); test: KinaseProfiler panel; set-up: dose or concentration left out as unconfirmed; settings: activity remaining
PKCβI(h) = PKCβI(h) (Homo sapiens (Human), UniProt P05771); test: KinaseProfiler panel; set-up: dose or concentration left out as unconfirmed; settings: activity remaining

Sequence of GRK5(h) (P34947 whole entry): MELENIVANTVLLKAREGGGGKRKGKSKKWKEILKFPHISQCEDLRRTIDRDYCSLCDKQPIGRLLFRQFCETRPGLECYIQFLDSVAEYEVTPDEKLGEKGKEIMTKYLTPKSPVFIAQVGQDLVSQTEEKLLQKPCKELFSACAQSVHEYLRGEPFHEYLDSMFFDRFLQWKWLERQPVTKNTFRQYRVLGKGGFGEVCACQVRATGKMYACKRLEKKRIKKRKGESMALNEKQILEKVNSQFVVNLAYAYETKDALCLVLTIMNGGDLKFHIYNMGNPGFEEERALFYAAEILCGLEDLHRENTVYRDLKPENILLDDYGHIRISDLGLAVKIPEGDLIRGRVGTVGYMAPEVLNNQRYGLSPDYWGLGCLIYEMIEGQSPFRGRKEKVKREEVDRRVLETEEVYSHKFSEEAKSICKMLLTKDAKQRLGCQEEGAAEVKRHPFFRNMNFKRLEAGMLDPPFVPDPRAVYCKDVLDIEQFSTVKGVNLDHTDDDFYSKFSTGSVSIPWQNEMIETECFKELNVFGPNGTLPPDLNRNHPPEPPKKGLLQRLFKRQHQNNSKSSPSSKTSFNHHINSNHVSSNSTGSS
Sequence of GCN2(h) (Q9P2K8 whole entry): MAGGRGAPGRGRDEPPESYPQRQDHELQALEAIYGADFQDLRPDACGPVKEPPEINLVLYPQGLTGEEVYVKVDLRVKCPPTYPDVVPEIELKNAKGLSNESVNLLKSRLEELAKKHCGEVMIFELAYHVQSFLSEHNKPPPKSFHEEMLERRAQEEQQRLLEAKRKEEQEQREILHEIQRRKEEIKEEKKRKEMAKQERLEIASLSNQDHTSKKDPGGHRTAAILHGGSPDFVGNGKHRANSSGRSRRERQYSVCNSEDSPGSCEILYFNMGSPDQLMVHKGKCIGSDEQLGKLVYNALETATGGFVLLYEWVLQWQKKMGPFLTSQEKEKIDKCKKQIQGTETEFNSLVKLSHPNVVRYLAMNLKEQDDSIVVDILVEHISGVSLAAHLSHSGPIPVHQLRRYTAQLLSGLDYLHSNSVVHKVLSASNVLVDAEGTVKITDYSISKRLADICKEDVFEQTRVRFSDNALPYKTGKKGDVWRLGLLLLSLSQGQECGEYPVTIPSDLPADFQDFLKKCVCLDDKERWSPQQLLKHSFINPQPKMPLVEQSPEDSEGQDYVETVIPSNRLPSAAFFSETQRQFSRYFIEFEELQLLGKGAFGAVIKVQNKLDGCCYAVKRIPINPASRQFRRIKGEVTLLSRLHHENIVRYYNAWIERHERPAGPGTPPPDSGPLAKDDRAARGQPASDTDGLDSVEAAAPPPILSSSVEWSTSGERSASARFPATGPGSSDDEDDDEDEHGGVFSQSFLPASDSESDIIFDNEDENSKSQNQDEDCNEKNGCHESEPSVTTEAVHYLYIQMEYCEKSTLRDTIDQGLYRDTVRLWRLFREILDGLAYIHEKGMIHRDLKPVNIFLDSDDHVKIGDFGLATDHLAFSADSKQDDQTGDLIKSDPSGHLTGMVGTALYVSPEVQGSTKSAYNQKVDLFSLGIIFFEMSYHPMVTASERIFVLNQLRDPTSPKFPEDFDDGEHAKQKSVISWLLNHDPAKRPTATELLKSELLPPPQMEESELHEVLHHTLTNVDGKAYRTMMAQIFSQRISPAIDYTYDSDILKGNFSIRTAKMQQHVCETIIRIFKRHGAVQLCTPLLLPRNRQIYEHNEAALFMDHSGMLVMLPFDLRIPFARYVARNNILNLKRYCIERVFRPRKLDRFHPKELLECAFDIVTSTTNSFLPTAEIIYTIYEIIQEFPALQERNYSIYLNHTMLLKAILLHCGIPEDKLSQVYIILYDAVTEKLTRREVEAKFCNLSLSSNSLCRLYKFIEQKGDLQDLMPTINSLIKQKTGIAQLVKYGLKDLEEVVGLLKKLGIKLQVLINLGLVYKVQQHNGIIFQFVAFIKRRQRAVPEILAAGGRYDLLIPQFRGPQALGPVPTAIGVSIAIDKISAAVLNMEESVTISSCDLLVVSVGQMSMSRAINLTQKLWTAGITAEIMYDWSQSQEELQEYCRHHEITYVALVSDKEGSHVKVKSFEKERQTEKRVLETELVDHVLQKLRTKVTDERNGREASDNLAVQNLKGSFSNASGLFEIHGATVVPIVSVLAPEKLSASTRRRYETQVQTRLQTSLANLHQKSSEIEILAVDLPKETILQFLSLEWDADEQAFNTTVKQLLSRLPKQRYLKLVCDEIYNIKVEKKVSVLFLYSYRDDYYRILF
Sequence of ULK2(h) (Q8IYT8 whole entry): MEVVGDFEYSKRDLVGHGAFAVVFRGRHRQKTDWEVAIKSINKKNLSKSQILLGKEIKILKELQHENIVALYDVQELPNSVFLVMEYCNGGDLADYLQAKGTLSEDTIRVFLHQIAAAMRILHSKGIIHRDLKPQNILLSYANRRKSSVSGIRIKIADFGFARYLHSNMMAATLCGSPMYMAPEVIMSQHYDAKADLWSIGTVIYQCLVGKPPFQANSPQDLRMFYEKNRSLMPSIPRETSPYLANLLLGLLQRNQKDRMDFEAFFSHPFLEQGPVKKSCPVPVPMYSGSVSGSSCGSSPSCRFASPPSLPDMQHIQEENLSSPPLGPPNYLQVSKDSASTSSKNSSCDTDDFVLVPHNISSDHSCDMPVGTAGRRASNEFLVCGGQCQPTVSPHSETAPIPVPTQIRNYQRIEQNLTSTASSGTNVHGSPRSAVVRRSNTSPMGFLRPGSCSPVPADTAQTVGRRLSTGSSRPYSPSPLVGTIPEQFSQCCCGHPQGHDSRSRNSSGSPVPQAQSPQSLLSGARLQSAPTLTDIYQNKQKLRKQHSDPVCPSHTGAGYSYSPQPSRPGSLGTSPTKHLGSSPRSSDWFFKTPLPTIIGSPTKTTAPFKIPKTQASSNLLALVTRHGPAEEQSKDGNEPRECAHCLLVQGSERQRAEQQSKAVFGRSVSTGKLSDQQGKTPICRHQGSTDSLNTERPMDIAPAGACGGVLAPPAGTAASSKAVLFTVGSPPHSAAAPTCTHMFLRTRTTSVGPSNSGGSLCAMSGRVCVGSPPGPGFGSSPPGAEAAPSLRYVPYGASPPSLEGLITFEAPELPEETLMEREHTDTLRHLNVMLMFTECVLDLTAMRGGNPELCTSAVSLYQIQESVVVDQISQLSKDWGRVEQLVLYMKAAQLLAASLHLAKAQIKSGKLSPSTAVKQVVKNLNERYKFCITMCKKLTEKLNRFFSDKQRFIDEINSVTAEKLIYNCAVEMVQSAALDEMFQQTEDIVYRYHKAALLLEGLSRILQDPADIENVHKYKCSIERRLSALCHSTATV
Sequence of IRAK1(h) (P51617 whole entry): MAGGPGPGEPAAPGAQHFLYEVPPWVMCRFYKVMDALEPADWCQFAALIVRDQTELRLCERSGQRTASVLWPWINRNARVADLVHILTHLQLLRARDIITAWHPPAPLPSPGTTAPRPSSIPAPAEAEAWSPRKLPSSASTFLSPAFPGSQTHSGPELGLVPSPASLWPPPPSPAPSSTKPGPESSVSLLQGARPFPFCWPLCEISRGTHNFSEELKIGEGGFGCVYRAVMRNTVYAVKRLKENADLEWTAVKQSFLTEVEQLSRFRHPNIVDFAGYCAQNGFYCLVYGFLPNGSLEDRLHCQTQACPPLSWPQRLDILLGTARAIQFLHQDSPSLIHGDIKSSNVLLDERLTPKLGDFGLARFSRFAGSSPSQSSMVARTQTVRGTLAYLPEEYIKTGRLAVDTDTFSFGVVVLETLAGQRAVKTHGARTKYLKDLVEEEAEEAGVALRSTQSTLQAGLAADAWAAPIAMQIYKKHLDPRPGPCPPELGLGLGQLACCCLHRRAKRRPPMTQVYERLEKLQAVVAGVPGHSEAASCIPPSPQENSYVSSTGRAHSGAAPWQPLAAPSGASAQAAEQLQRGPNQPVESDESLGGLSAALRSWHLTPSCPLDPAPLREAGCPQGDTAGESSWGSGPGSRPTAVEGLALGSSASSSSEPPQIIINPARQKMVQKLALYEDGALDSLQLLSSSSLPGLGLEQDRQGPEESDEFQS
Sequence of IKKβ (O14920 whole entry): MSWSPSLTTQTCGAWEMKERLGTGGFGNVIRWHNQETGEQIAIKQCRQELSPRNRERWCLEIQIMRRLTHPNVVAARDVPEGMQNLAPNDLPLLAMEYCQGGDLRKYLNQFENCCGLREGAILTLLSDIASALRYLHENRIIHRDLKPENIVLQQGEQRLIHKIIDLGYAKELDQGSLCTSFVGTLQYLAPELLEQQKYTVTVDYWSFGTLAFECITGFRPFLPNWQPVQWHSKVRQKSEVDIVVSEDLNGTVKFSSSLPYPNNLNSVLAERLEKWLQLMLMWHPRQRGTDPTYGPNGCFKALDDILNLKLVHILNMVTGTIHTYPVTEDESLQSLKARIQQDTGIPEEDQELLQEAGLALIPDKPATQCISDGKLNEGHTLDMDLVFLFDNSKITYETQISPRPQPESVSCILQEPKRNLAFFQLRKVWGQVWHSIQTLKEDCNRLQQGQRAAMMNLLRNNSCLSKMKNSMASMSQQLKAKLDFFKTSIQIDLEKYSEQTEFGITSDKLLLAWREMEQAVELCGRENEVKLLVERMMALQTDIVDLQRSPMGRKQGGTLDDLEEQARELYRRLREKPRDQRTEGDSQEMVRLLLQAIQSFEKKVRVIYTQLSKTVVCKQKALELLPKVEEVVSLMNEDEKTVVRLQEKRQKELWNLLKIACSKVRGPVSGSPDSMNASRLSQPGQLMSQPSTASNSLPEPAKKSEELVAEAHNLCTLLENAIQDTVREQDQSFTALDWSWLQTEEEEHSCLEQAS
Sequence of IKKβ(h) (O14920 whole entry): as above

## Cc1cc2c(-c3ccc(NC(=O)[C@H](N)CC(C)(C)C)cc3C)ccnc2[nH]1 [Compound F-90, (2R)-2-Amino-4,4-dimethyl-N-[3-methyl-4-(2-methyl-1H-pyrrolo[2,3-b]pyridin-4-yl)phenyl]pentanamide]
Flt1(h)
  % Activity: 125%
PIP5K1a(h)
  % Activity: 103%
HIPK1(h)
  % Activity: 100%
mTOR/FKBP12(h)
  % Activity: 120%
VRK2(h)
  % Activity: 100%
PIP5K1g(h)
  % Activity: 102%
CDKL3(h)
  % Activity: 79%
ZAP-70(h)
  % Activity: 71%
ULK2(h)
  % Activity: 98%
PhKγ2(h)
  % Activity: 98%
WNK3(h)
  % Activity: 85%
CLK2(h)
  % Activity: 106%
LATS1(h)
  % Activity: 90%
IKKβ(h)
  % Activity: 99%
STK32C(h)
  % Activity: 85%
CDK17/cyclinY(h)
  % Activity: 108%
ChaK1(h)
  % Activity: 106%
IKKβ
  IC50: > 3 µM
TGFBR1(h)
  % Activity: 103%
BIKE(h)
  % Activity: 50%
CK1δ(h)
  % Activity: 96%
WNK1(h)
  % Activity: 109%
IRAK1(h)
  % Activity: 95%
GCN2(h)
  % Activity: 101%
GRK5(h)
  % Activity: 97%
PKCβI(h)
  % Activity: 90%
